pIC50: −log10 of the molar value.
Tests used:
[1] = molecular target: T1, p38 MAPK (Xenopus laevis, UniProt P47812); experiment: Reconstituted enzyme assay, p38 MAPK; format: biochemical; conditions: γ-[32P]-ATP, synthetic peptide substrate
T1 construct: purchased Upstate Biotechnology
Description: [table] […] The rationale for using BV-2 cells in high throughput screening was the paucity of well-characterized human microglial cell lines, and the relevant activation responses and signaling pathways reflect those seen in human and rodent primary microglial cultures. Compounds were tested for their effects on NO accumulation in conditioned media of LPS-stimulated BV-2 cells by measurement of nitrite production by the Griess assay as a read-out for iNOS activity, as described previously. Stock solutions of compounds were prepared in dimethylsulfoxide (DMSO) or in water. When stock solutions were prepared in DMSO, control wells contained the same final concentration of DMSO as the compound-containing wells. […] Solutions of compounds for cell treatments were diluted to a 10× final concentration by dilution of stock solutions in αMEM media. […] Reconstituted enzyme assays were done as described s. The sources of protein kinases were: bovine heart PKA from Promega, rat brain PKC from Calbiochem, rat CaMKII from New England Biolabs, chicken gizzard MLCK prepared as described, and a p38 MAP kinase kit containing recombinant Xenopus p38-MAPK and its human substrate from Upstate Biotechnology. […]

[2] = molecular target: death associated protein kinase (DAPK) (Homo sapiens, UniProt P53355); experiment: Enzyme assay, DAPK; format: biochemical; conditions: read-out: DAPK IC50
Description: Therefore, compound MW01-026Z was selected as a starting point for variations on component A (Table 6). […] However, none of the A variations appeared to improve the activity and selectivity profile of CompoundMW01-026Z. (For purposes of illustration, only, component G was maintained throughout as an acyl moiety, while component R2 was varied as shown. All such compositions are available using the synthetic techniques described herein. Enzyme assays were conducted per procedures described elsewhere herein.) A more comprehensive structure activity relationship is summarized in Table 7, below.
With reference to the compositions of Table 3 and the enzyme assay techniques described elsewhere herein, Table 7 provides structural activity relationships observed, in accordance with this invention.

[3] = test system: BV-2 cells; experiment: Western blot of transcription factor and kinase phosphorylation in LPS-treated BV-2 cells; format: cell-based, murine; conditions: compound 10 μM
Description: FIG. 2. Selective effects of compound 1 (MW01-070C) on glial activation responses and gene-regulating protein kinase pathways. BV-2 cells and rat astrocytes were treated with control buffer (C) or stimulated with LPS or Aβ1-42 peptide in the presence or absence of compound 1, and cell lysates were analyzed by Western blots. (A) Astrocytes treated with LPS and compound 1 show concentration-dependent inhibition of iNOS and IL-1β production but not GFAP. (B) Astrocytes treated with A β1-42 and compound 1 (10 μM) show inhibition of iNOS and IL-1β but not apoE and COX-2. (C) BV-2 cells treated with LPS and compound 1 (10 μM) show inhibition of phosphorylated (p-) CREB but not p-p38 and p-ATF2, as assayed with antibodies that are specific for the phosphorylated forms of the proteins. Data are expressed as percent control (mean±SD; n=3 determinations).
FIG. 7. Effects of MW01-070C on phosphorylation of transcription factors and an upstream activating kinase. BV-2 cells were incubated for 4 hr with control buffer (lane 1), 500 ng/ml LPS (lane 2), or […] LPS+10 μM MW01-070C (lane 3). The levels of phosphorylated (p-) ATF2, p38, and CREB were determined by Western blot of cell lysates, using antibodies that are specific for the phosphorylated forms of these proteins.
For analysis of transcription factor phosphorylation, BV-2 cells were plated at 2×10^5 cells/well in a 12-well tissue culture plate, and grown for 48 hrs in αMEM containing 10% FBS. Immediately before treatment, media was removed, cells were rinsed with PBS, and media changed to serum-free αMEM. Cells were then treated for 4 hrs with control buffer or LPS (500 ng/ml) in the presence or absence of MW01-070C (10 μM), and cell lysates harvested for Western blot analysis.
Cell lysates were prepared and Western blots were done as previously described [Petrova, T. V., Akama, K. T., and Van Eldik, L. J. (1999) Proc Natl Acad Sci USA 96, 4668-4673] using equal volumes of cell extracts per gel lane. The following antibodies were used: monoclonal anti-iNOS (1:1000 dilution, Transduction Labs); polyclonal anti-rat IL-1β (1:1000 dilution, R&D Systems, Inc.); monoclonal anti-glial fibrillary acidic protein (GFAP) (1:[…] dilution, Sigma); polyclonal anti-rat apoE (1:15,000 dilution) prepared as described [LaDu, M. J., Shah, J. A., Reardon, K., Getz, G. S., Bu, G., Hu, J., Guo, L., and Van Eldik, L. J. (2000) J. Biol. Chem. 275, 33974-33980]; polyclonal anti-COX-2 (1:500 dilution) and monoclonal anti-phosphoATF2 (1:1000 dilution) from Santa Cruz Biotechnology; polyclonal anti-phosphoCREB (1:1000 dilution), polyclonal anti-phosphop38 MAPK (1:1000 dilution), polyclonal anti-phosphop90RSK (1:1000 dilution), and monoclonal anti-phosphoERK1/2 (1:1000 dilution) from Cell Signaling.

Chain of death associated protein kinase (DAPK) (P53355 whole entry, species assumed): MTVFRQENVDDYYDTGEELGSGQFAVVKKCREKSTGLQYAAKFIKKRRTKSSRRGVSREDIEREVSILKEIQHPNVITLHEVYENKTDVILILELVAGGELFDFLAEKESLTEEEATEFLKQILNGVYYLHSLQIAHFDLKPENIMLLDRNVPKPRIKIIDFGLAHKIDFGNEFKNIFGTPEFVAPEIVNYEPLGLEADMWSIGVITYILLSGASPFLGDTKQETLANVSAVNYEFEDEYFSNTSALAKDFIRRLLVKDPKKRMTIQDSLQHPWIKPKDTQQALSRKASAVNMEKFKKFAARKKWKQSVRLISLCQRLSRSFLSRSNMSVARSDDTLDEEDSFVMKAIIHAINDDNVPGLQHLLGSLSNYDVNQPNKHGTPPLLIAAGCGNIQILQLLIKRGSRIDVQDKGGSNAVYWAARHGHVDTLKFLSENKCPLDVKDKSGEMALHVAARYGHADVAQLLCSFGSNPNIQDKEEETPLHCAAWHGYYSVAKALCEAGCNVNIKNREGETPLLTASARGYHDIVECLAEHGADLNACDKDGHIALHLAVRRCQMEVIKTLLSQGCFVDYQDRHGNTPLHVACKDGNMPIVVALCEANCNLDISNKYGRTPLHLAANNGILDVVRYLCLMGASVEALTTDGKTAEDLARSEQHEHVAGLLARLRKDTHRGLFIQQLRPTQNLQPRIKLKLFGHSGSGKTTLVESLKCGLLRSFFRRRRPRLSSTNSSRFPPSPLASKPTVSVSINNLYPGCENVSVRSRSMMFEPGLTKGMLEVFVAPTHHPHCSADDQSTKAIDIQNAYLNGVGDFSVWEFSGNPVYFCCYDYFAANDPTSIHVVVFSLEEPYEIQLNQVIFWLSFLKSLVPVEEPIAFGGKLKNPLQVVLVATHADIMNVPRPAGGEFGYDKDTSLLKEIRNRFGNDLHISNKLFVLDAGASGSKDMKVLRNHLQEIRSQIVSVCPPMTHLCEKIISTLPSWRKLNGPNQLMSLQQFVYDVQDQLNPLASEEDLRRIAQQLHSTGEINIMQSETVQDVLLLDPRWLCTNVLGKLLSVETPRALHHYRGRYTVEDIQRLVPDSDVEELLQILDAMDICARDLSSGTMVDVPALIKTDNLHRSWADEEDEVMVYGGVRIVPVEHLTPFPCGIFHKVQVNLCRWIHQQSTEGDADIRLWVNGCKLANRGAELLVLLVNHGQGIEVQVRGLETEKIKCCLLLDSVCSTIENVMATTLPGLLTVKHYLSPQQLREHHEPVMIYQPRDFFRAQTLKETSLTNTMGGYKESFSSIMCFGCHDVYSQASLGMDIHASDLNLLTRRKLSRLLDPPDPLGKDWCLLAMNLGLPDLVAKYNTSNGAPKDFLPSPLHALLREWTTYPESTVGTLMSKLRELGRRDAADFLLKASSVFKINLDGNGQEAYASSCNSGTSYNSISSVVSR
T1 sequence (P47812 whole entry): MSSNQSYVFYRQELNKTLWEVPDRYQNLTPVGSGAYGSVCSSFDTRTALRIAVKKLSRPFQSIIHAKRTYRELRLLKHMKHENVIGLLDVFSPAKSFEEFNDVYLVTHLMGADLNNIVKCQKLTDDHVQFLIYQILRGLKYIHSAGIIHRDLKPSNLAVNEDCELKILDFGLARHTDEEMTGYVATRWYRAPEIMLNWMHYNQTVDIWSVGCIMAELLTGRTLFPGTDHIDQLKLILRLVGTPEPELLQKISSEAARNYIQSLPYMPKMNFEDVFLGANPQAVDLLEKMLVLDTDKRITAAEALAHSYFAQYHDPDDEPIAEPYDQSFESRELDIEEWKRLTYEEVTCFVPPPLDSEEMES

pIC50 [1]: < 4.00
Compound: N=c1cc2c(nn1CCCCCCCCCCC(=O)N1CCN(c3ncccn3)CC1)-c1ccccc1CC2 [MW01-070C]
pIC50 [2]: 4.00 to 4.10
phosphorylated ATF2 [3]: does not inhibit
phosphorylated p38 MAPK [3]: not blocked
phosphorylation of CREB [3]: inhibited
phosphorylated p38 MAPK ([3]; listed as 1): does not inhibit
phosphorylation of CREB ([3]; listed as 1): inhibits

Reference: patent publication US7888357B2, “Anti-inflammatory and protein kinase inhibitor compositions and related methods for downregulation of detrimental cellular responses and inhibition of cell death” (Northwestern University, priority 2001, dated 2011)
